Source: ChEMBL document CHEMBL5241054, “Effective anti-aromatase therapy to battle against estrogen-mediated breast cancer: Comparative SAR/QSAR assessment on steroidal aromatase inhibitors” (Eur J Med Chem, 2020)

Target: T1, Aromatase (Homo sapiens, UniProt P11511)
T1 sequence (P11511 whole entry): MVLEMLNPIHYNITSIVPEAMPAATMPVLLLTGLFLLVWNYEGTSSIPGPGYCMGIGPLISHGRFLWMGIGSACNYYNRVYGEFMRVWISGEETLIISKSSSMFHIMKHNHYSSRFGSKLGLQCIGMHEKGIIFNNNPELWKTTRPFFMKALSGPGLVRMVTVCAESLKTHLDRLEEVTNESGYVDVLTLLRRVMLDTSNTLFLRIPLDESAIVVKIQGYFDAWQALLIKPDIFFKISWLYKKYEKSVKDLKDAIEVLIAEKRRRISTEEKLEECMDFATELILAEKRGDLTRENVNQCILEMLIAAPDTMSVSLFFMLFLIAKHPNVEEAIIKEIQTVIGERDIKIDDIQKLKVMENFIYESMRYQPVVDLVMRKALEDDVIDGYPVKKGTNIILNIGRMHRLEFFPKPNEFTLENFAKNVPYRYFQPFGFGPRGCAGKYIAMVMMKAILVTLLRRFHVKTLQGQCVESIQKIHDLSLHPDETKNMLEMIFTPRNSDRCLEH

Point of comparison: `C[C@]12C[C@@H](Cc3ccccc3)C(=O)C=C1CC[C@@H]1[C@@H]2CC[C@]2(C)C(=O)CC[C@@H]12`, IC50 466 µM. Against it:
- CCCCS[C@@H]1CC2=CC(=O)CC[C@]2(C)[C@H]2CC[C@]3(C)C(=O)CC[C@H]3[C@H]12 — 8200-fold lower, 0.057 µM
- C[C@]12CCC(=O)C=C1C[C@@H](SCc1ccccc1)[C@@H]1[C@@H]2CC[C@]2(C)C(=O)CC[C@@H]12 — 6800-fold lower, 0.069 µM
- C[C@]12CCC(=O)C=C1C[C@@H](SCCc1ccccc1)[C@@H]1[C@@H]2CC[C@]2(C)C(=O)CC[C@@H]12 — 7500-fold lower, 0.0619 µM
- COc1ccc(CS[C@@H]2CC3=CC(=O)CC[C@]3(C)[C@H]3CC[C@]4(C)C(=O)CC[C@H]4[C@H]23)cc1 — 15000-fold lower, 0.031 µM
- C[C@]12CCC(=O)C=C1C[C@@H](Sc1ccc(N)cc1)[C@@H]1[C@@H]2CC[C@]2(C)C(=O)CC[C@@H]12 — 2900-fold lower, 0.16 µM
- C[C@]12CC[C@@H]3c4ccc(O)c(NC(=O)c5ccncc5)c4CC[C@H]3[C@@H]1CCC2=O — 16-fold lower, 28.6 µM
- CCCCCCCC[C@H]1C[C@@H]2[C@H](CC[C@]3(C)C(=O)CC[C@@H]23)[C@@]2(C)CCC(=O)C=C12 — 91-fold lower, 5.11 µM
- CCCCC[C@@H]1C[C@@H]2[C@H](CC[C@]3(C)C(=O)CC[C@@H]23)[C@@]2(C)C=CC(=O)C=C12 — 8600-fold lower, 0.054 µM
- CCCC[C@@H]1C[C@@H]2[C@H](CC[C@]3(C)C(=O)CC[C@@H]23)[C@@]2(C)CCC(=O)C=C12 — 910-fold lower, 0.511 µM
- CCCCC[C@H]1C[C@@H]2[C@H](CC[C@]3(C)C(=O)CC[C@@H]23)[C@@]2(C)CCC(=O)C=C12 — 1200-fold lower, 0.4 µM
- CCCCC[C@@H]1C[C@@H]2[C@H](CC[C@]3(C)C(=O)CC[C@@H]23)[C@@]2(C)CCC(=O)C=C12 — 2000-fold lower, 0.23 µM
- CC[C@@H]1C[C@@H]2[C@H](CC[C@]3(C)C(=O)CC[C@@H]23)[C@@]2(C)CCC(=O)C=C12 — 3300-fold lower, 0.14 µM
- COC1=C[C@@]2(C)C(=CC1=O)CC[C@@H]1[C@@H]2CC[C@]2(C)C(=O)CC[C@@H]12 — 420-fold lower, 1.1 µM
- C[C@]12C=C(CCCc3ccccc3)C(=O)C=C1CC[C@@H]1[C@@H]2CC[C@]2(C)C(=O)CC[C@@H]12 — 3200-fold lower, 0.145 µM
- CC[C@@H]1C[C@@H]2[C@H](CC[C@]3(C)C(=O)CC[C@@H]23)[C@@]2(C)C=CC(=O)C=C12 — 8600-fold lower, 0.054 µM
- C=C[C@@H]1C[C@@H]2[C@H](CC[C@]3(C)C(=O)CC[C@@H]23)[C@@]2(C)CCC(=O)C=C12 — 1500-fold lower, 0.32 µM
- CCCCCC[C@H]1C[C@@H]2[C@H](CC[C@]3(C)C(=O)CC[C@@H]23)[C@@]2(C)CCC(=O)C=C12 — 470-fold lower, 1 µM
- C[C@@H]1C[C@@H]2[C@H](CC[C@]3(C)C(=O)CC[C@@H]23)[C@@]2(C)CCC(=O)C=C12 — 650-fold lower, 0.719 µM
- C[C@]12CCC(=O)C=C1C=C(c1ccccc1)[C@@H]1[C@@H]2CC[C@]2(C)C(=O)CC[C@@H]12 — 330-fold lower, 1.43 µM
- CCCCCC[C@@H]1C[C@@H]2[C@H](CC[C@]3(C)C(=O)CC[C@@H]23)[C@@]2(C)CCC(=O)C=C12 — 1100-fold lower, 0.43 µM
- CCCCCCCC[C@@H]1C[C@@H]2[C@H](CC[C@]3(C)C(=O)CC[C@@H]23)[C@@]2(C)CCC(=O)C=C12 — 260-fold lower, 1.8 µM
- C[C@H]1C[C@@H]2[C@H](CC[C@]3(C)C(=O)CC[C@@H]23)[C@@]2(C)CCC(=O)C=C12 — 1300-fold lower, 0.35 µM
- CCCCOC1=C[C@@]2(C)C(=CC1=O)CC[C@@H]1[C@@H]2CC[C@]2(C)C(=O)CC[C@@H]12 — 16-fold lower, 29.6 µM
- CCCC[C@H]1C[C@@H]2[C@H](CC[C@]3(C)C(=O)CC[C@@H]23)[C@@]2(C)C=CC(=O)C=C12 — 2300-fold lower, 0.2 µM
- CCC[C@H]1C[C@@H]2[C@H](CC[C@]3(C)C(=O)CC[C@@H]23)[C@@]2(C)C=CC(=O)C=C12 — 1700-fold lower, 0.27 µM
- C[C@]12CC[C@@H]3c4ccc(O)c(NC(=O)c5cccnc5)c4CC[C@H]3[C@@H]1CCC2=O — 4.9-fold lower, 95.7 µM
- C[C@]12C[C@@H](CCc3ccccc3)C(=O)C=C1CC[C@@H]1[C@@H]2CC[C@]2(C)C(=O)CC[C@@H]12 — 3.7-fold lower, 126 µM
- CCC[C@@H]1C[C@@]2(C)C(=CC1=O)CC[C@@H]1[C@@H]2CC[C@]2(C)C(=O)CC[C@@H]12 — 320-fold lower, 1.46 µM
- CCCCC1=C[C@@]2(C)C(=CC1=O)CC[C@@H]1[C@@H]2CC[C@]2(C)C(=O)CC[C@@H]12 — 250-fold lower, 1.84 µM
- Cc1ccc(CC[C@@H]2C[C@@]3(C)C(=CC2=O)CC[C@@H]2[C@@H]3CC[C@]3(C)C(=O)CC[C@@H]23)cc1 — 12-fold lower, 38.8 µM
- CCCCC[C@H]1C[C@@H]2[C@H](CC[C@]3(C)C(=O)CC[C@@H]23)[C@@]2(C)C=CC(=O)C=C12 — 3300-fold lower, 0.14 µM
- C[C@]12C[C@@H](CCCc3ccccc3)C(=O)C=C1CC[C@@H]1[C@@H]2CC[C@]2(C)C(=O)CC[C@@H]12 — 9.3-fold lower, 50.2 µM
- CCCCCCC1=C[C@@]2(C)C(=CC1=O)CC[C@@H]1[C@@H]2CC[C@]2(C)C(=O)CC[C@@H]12 — 1600-fold lower, 0.298 µM
- Cc1ccc(CCC2=C[C@@]3(C)C(=CC2=O)CC[C@@H]2[C@@H]3CC[C@]3(C)C(=O)CC[C@@H]23)cc1 — 73-fold lower, 6.35 µM
- CCCC[C@@H]1C[C@@]2(C)C(=CC1=O)CC[C@@H]1[C@@H]2CC[C@]2(C)C(=O)CC[C@@H]12 — 240-fold lower, 1.93 µM
- C[C@]12C=C(CCCCc3ccccc3)C(=O)C=C1CC[C@@H]1[C@@H]2CC[C@]2(C)C(=O)CC[C@@H]12 — 14-fold lower, 34.2 µM
- CCCCCC[C@H]1C[C@@H]2[C@H](CC[C@]3(C)C(=O)CC[C@@H]23)[C@@]2(C)C=CC(=O)C=C12 — 1700-fold lower, 0.28 µM
- CCCCCC[C@@H]1C[C@@]2(C)C(=CC1=O)CC[C@@H]1[C@@H]2CC[C@]2(C)C(=O)CC[C@@H]12 — 45-fold lower, 10.4 µM
- C[C@]12C=C(Cc3ccccc3)C(=O)C=C1CC[C@@H]1[C@@H]2CC[C@]2(C)C(=O)CC[C@@H]12 — 5.4-fold lower, 86.5 µM
- C[C@]12CCC(=O)C=C1[C@H](c1ccccc1)C[C@@H]1[C@@H]2CC[C@]2(C)C(=O)CC[C@@H]12 — 270-fold lower, 1.7 µM
- C#C[C@@H]1C[C@@H]2[C@H](CC[C@]3(C)C(=O)CC[C@@H]23)[C@@]2(C)CCC(=O)C=C12 — 250-fold lower, 1.9 µM
- CCCC[C@@H]1C[C@@H]2[C@H](CC[C@]3(C)C(=O)CC[C@@H]23)[C@@]2(C)C=CC(=O)C=C12 — 2600-fold lower, 0.18 µM
- CCCCCCCC1=C[C@@]2(C)C(=CC1=O)CC[C@@H]1[C@@H]2CC[C@]2(C)C(=O)CC[C@@H]12 — 770-fold lower, 0.605 µM
- CCOC1=C[C@@]2(C)C(=CC1=O)CC[C@@H]1[C@@H]2CC[C@]2(C)C(=O)CC[C@@H]12 — 26-fold lower, 17.6 µM
- C[C@]12CC[C@@H]3c4cc(NC(=O)c5cccnc5)c(O)cc4CC[C@H]3[C@@H]1CCC2=O — 6.2-fold lower, 75.3 µM
- CC[C@H]1C[C@@H]2[C@H](CC[C@]3(C)C(=O)CC[C@@H]23)[C@@]2(C)C=CC(=O)C=C12 — 1900-fold lower, 0.25 µM
- C[C@]12CC[C@@H]3c4cc(NC(=O)c5ccccn5)c(O)cc4CC[C@H]3[C@@H]1CCC2=O — 2.2-fold lower, 209 µM
- CC(C)[C@@H]1C[C@@H]2[C@H](CC[C@]3(C)C(=O)CC[C@@H]23)[C@@]2(C)CCC(=O)C=C12 — 420-fold lower, 1.1 µM
- C[C@]12C=C(CCc3ccccc3)C(=O)C=C1CC[C@@H]1[C@@H]2CC[C@]2(C)C(=O)CC[C@@H]12 — 180-fold lower, 2.57 µM
- CCCCCCC[C@H]1C[C@@H]2[C@H](CC[C@]3(C)C(=O)CC[C@@H]23)[C@@]2(C)C=CC(=O)C=C12 — 1900-fold lower, 0.25 µM
- C[C@]12C=C(CCc3ccc(C(F)(F)F)cc3)C(=O)C=C1CC[C@@H]1[C@@H]2CC[C@]2(C)C(=O)CC[C@@H]12 — 14-fold lower, 34.1 µM
- CCCCCC[C@@H]1C[C@@H]2[C@H](CC[C@]3(C)C(=O)CC[C@@H]23)[C@@]2(C)C=CC(=O)C=C12 — 6100-fold lower, 0.076 µM
- C[C@]12C[C@@H](CCc3ccc(C(F)(F)F)cc3)C(=O)C=C1CC[C@@H]1[C@@H]2CC[C@]2(C)C(=O)CC[C@@H]12 — 10-fold lower, 46.6 µM
- CCCCC[C@@H]1C[C@@]2(C)C(=CC1=O)CC[C@@H]1[C@@H]2CC[C@]2(C)C(=O)CC[C@@H]12 — 360-fold lower, 1.28 µM
- CCCC1=C[C@@]2(C)C(=CC1=O)CC[C@@H]1[C@@H]2CC[C@]2(C)C(=O)CC[C@@H]12 — 270-fold lower, 1.75 µM
- C[C@]12CC[C@@H]3c4ccc(OC(=O)c5ccno5)cc4CC[C@H]3[C@@H]1CCC2=O — 1.9-fold lower, 244 µM
- CCC1=C[C@@]2(C)C(=CC1=O)CC[C@@H]1[C@@H]2CC[C@]2(C)C(=O)CC[C@@H]12 — 490-fold lower, 0.959 µM
- CCC[C@@H]1C[C@@H]2[C@H](CC[C@]3(C)C(=O)CC[C@@H]23)[C@@]2(C)C=CC(=O)C=C12 — 7800-fold lower, 0.06 µM
- CCC[C@@H]1C[C@@H]2[C@H](CC[C@]3(C)C(=O)CC[C@@H]23)[C@@]2(C)CCC(=O)C=C12 — 1900-fold lower, 0.24 µM
- C[C@]12CC[C@@H]3c4ccc(O)c(NC(=O)c5ccccn5)c4CC[C@H]3[C@@H]1CCC2=O — 2.3-fold lower, 203 µM
- CCCCCCC[C@@H]1C[C@@H]2[C@H](CC[C@]3(C)C(=O)CC[C@@H]23)[C@@]2(C)C=CC(=O)C=C12 — 7800-fold lower, 0.06 µM
- CCCCCC1=C[C@@]2(C)C(=CC1=O)CC[C@@H]1[C@@H]2CC[C@]2(C)C(=O)CC[C@@H]12 — 630-fold lower, 0.743 µM
- C[C@]12C=C(Br)C(=O)C=C1CC[C@@H]1[C@@H]2CC[C@]2(C)C(=O)CC[C@@H]12 — 250-fold lower, 1.84 µM
- C[C@]12C[C@@H](CCCCc3ccccc3)C(=O)C=C1CC[C@@H]1[C@@H]2CC[C@]2(C)C(=O)CC[C@@H]12 — 2.1-fold lower, 222 µM
- C[C@]12CCC(=O)C=C1[C@H](Cc1ccccc1)C[C@@H]1[C@@H]2CC[C@]2(C)C(=O)CC[C@@H]12 — 120-fold lower, 4 µM
